The structures appear in SMILES notation. A value given as a limit tells only on which side of the number the result lay.

Consider five compounds from US9249125B2, “Pyrazole derivatives as p38 MAP inhibitors” (RESPIVERT LIMITED, priority 2012, dated 2016).

One series concerns the target cSrc (Homo sapiens (Human), UniProt P12931). In words: c-Src enzyme inhibition (FRET, Z-LYTE). Format: biochemical. The method, boiled down: (§1)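 Z-LYTE FRET kinase assay: enzyme (3000 or 2000 ng/mL stock, respectively) preincubated 2 h at RT with compound (4–0.004 μg/mL stocks), then FRET peptide plus ATP (800 μM stock for c-Src, 60 μM for Syk) added for 1 h. Protease development 1 h; phosphorylation from coumarin/fluorescein emission ratio.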

A further series concerns the target Syk (Homo sapiens (Human), UniProt P43405). In words: Syk enzyme inhibition (FRET, Z-LYTE). The class given is biochemical. In short, it runs like this:
as §1

The subject of series [1] is LPS-induced TNFα release in d-U937 cells. The series is described as follows: LPS-induced TNFα release in d-U937 cells. Format: cell-based. The settings on record: Homo sapiens, dU937, relative to 10 μg/mL BIRB796, read-out: LPS Induced Release of Cytokine in d-937 Cells TNFα REC50. In short, it runs like this:
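PMA-differentiated (100 ng/mL, 48–72 hr) U937 cells pre-incubated with compound 2 hr, then stimulated with LPS (0.1 μg/mL, E. coli O111:B4) for 4 hr. Supernatant TNFα and IL-8 measured by sandwich ELISA; inhibition versus vehicle control, REC50 from concentration-response curve.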

The test system of a further series is d-U937 cells. In words: Cell viability: MTT assay. Format: cell-based, human. As to conditions: 1 μg/mL. In short, it runs like this:
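Differentiated U937 cells were exposed to compound at 1 or 10 μg/mL either 4 h in 5% FCS RPMI1640 or 24 h in 10% FCS RPMI1640, then given MTT for 1 h, DMSO-solubilised and read at 550 nm. Percent viability loss versus 0.5% DMSO vehicle; apparent gains appear negative.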
(Tetrazolium assays rely on reduction of a dye to a coloured formazan, in cell work by metabolically active cells.)

Series [2] relates to Poly I:C-induced ICAM-1 expression in BEAS2B cells. The series is described as follows: Poly I:C-induced ICAM-1 expression in BEAS2B cells. The class given is cell-based. The settings on record: Homo sapiens, BEAS-2B, read-out: Poly IC induced ICAM1 in BEAS2B IC50. In short, it runs like this: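 BEAS2B human bronchial epithelial cells pre-incubated with compound for 2 hr, then transfected with 1 μg/mL poly I:C plus Oligofectamine. At 18 hr, surface ICAM-1 measured by cell-based ELISA (HRP, OD450–655). Signal corrected for cell number by crystal violet OD595.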

Series [3] deals with LPS-induced IL-8 release in d-U937 cells. The series is described as follows: LPS-induced IL-8 release in d-U937 cells. The class given is cell-based. The settings on record: Homo sapiens, dU937, read-out: LPS Induced Release of Cytokine in d-937 Cells IL-8 IC50. The method, boiled down:
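PMA (100 ng/mL, 48–72 hr)-differentiated U937; cpd 2 hr pre-inc; LPS 0.1 μg/mL (E. coli O111:B4) 4 hr. Supernatant TNFα/IL-8 by sandwich ELISA. IL-8 inhibition per concentration vs vehicle; REC50 from curve fit.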

Another series deals with p38 MAPKα (Homo sapiens (Human), UniProt Q16539). In words: p38 MAPKα enzyme inhibition (FRET, Z-LYTE). Format: biochemical.
p38 MAPKα, sequence (Q16539 whole entry): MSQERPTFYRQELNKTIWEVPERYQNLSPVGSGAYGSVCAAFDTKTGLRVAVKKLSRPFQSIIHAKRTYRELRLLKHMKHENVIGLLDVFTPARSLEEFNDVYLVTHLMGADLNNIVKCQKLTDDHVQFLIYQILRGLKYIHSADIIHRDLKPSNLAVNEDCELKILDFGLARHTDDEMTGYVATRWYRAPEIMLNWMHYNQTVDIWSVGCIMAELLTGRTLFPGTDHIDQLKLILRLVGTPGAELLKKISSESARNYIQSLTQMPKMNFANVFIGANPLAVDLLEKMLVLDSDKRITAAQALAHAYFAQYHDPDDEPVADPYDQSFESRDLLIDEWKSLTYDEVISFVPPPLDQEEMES

cSrc, sequence (P12931 whole entry, looked up): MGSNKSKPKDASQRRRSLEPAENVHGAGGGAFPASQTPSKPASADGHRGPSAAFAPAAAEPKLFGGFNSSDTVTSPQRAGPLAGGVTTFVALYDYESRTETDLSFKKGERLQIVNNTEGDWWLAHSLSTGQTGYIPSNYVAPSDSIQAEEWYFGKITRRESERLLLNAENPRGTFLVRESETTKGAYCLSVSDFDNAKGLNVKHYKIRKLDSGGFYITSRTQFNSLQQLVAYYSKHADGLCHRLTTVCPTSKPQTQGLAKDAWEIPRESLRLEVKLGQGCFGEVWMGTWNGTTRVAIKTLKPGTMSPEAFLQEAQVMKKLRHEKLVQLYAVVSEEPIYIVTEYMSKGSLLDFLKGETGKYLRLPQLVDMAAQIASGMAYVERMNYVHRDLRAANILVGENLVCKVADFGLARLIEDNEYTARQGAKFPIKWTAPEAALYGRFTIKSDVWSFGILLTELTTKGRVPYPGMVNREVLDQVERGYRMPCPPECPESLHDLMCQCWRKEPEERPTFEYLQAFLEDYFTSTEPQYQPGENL

Broadly, the IC50 is the concentration that gives 50% inhibition. Turning to `Cc1ccc(-n2nc(C(C)(C)C)cc2NC(=O)Nc2ccc(Oc3ccnc(Nc4ccc5scnc5c4)n3)c3ccccc23)cc1` [Example 34, 1-(4-((2-(benzo[d]thiazol-5-ylamino)pyrimidin-4-yl)oxy)naphthalen-1-yl)-3-(3-(tert-butyl)-1-(p-tolyl)-1H-pyrazol-5-yl)urea], the IC50 against cSrc was 18 nM; against Syk, over 1560 nM; in series [2], 6.3 nM; in series [3], 3.4 nM; against p38 MAPKα, 308 nM. In addition, in series [1], the EC50 stood at 0.9 nM. In addition, the “MTT Assay Cell viability at time point in d-U937 cells 4 h” value with d-U937 cells was “−ve (−ve and +ve indicate that the value is below and above respectively, the no significant effect threshold, defined as 30% inhibition at 1 μg/mL at the time point indicated.)”. Also, the “MTT Assay Cell viability at time point in d-U937 cells 24 h” value with d-U937 cells is “−ve (−ve and +ve indicate that the value is below and above respectively, the no significant effect threshold, defined as 30% inhibition at 1 μg/mL at the time point indicated.)”.

Consider `Cc1cc(Nc2nccc(Oc3ccc(NC(=O)Nc4cc(C(C)(C)C)nn4-c4cccc(OCCN5CCOCC5)c4)c4ccccc34)n2)cc2cn[nH]c12` [Example 56, 1-(3-(tert-butyl)-1-(3-(2-morpholinoethoxy)phenyl)-1H-pyrazol-5-yl)-3-(4-((2-((7-methyl-1H-indazol-5-yl)amino)pyrimidin-4-yl)oxy)naphthalen-1-yl)urea], for which the IC50 against cSrc amounted to 2 nM; at Syk it was 3 nM; in series [2], 11.9 nM; in series [3], 11 nM; on p38 MAPKα, 46 nM. In addition, the EC50 in series [1] is 4.9 nM. For the same compound, the “MTT Assay Cell viability at time point in d-U937 cells 4 h” value in the series on d-U937 cells is “−ve (−ve and +ve indicate that the value is below and above respectively, the no significant effect threshold, defined as 30% inhibition at 1 μg/mL at the time point indicated.)”. The “MTT Assay Cell viability at time point in d-U937 cells 24 h” value in the series with d-U937 cells is “+ve (−ve and +ve indicate that the value is below and above respectively, the no significant effect threshold, defined as 30% inhibition at 1 μg/mL at the time point indicated.)”.

For the compound `Cc1ccc(-n2nc(C(C)(C)C)cc2NC(=O)Nc2ccc(Oc3ccnc(Nc4ccc5c(c4)ncn5C)n3)c3ccccc23)cc1` [Example 4, 1-(3-(tert-Butyl)-1-(p-tolyl)-1H-pyrazol-5-yl)-3-(4-((2-((1-methyl-1H-benzo[d]imidazol-5-yl)amino)pyrimidin-4-yl)oxy)naphthalen-1-yl)urea], the IC50 stood at 4 nM against cSrc; 14 nM against Syk; 2.4 nM in series [2]; 2 nM in series [3]; 19 nM on p38 MAPKα. Moreover, the EC50 in series [1] stood at 2.4 nM. The “MTT Assay Cell viability at time point in d-U937 cells 4 h” value in the series with d-U937 cells is “−ve (−ve and +ve indicate that the value is below and above respectively, the no significant effect threshold, defined as 30% inhibition at 1 μg/mL at the time point indicated.)”. Besides, the “MTT Assay Cell viability at time point in d-U937 cells 24 h” value in the series with d-U937 cells was “−ve (−ve and +ve indicate that the value is below and above respectively, the no significant effect threshold, defined as 30% inhibition at 1 μg/mL at the time point indicated.)”.

On to `Cc1ccc(-n2nc(C(C)(C)C)cc2NC(=O)Nc2ccc(Oc3ccnc(Nc4ccc5[nH]ncc5c4)n3)c3ccccc23)cc1` [Example 22, 1-(4-((2-((1H-indazol-5-yl)amino)pyrimidin-4-yl)oxy)naphthalen-1-yl)-3-(3-(tert-butyl)-1-(p-tolyl)-1H-pyrazol-5-yl)urea], for which the IC50 against cSrc worked out at 19 nM; against Syk, 26 nM; in series [2] it was 2.5 nM; in series [3], 1.5 nM; against p38 MAPKα it was 56 nM. Besides, the EC50 in series [1] is 4.7 nM. Also, the “MTT Assay Cell viability at time point in d-U937 cells 4 h” value with d-U937 cells is “−ve (−ve and +ve indicate that the value is below and above respectively, the no significant effect threshold, defined as 30% inhibition at 1 μg/mL at the time point indicated.)”. In the series on d-U937 cells, the “MTT Assay Cell viability at time point in d-U937 cells 24 h” value is “−ve (−ve and +ve indicate that the value is below and above respectively, the no significant effect threshold, defined as 30% inhibition at 1 μg/mL at the time point indicated.)”.

As to `Cc1cc(Nc2nccc(Oc3ccc(NC(=O)Nc4cc(C(C)(C)C)nn4-c4ccc(=O)n(CCN5CCOCC5)c4)c4ccccc34)n2)cc2cn[nH]c12` [Example 89, 1-(3-(tert-butyl)-1-(1-(2-morpholinoethyl)-6-oxo-1,6-dihydropyridin-3-yl)-1H-pyrazol-5-yl)-3-(4-((2-((7-methyl-1H-indazol-5-yl)amino)pyrimidin-4-yl)oxy)naphthalen-1-yl)urea], the IC50 at cSrc was under 1 nM; against Syk, 3 nM; in series [2], 17.1 nM; in series [3], 28.8 nM; against p38 MAPKα, 47 nM. For the same compound, in series [1], the EC50 came out at 10.8 nM. Further, the “MTT Assay Cell viability at time point in d-U937 cells 4 h” value in the series on d-U937 cells was “−ve (−ve and +ve indicate that the value is below and above respectively, the no significant effect threshold, defined as 30% inhibition at 1 μg/mL at the time point indicated.)”. Besides, the “MTT Assay Cell viability at time point in d-U937 cells 24 h” value in the series with d-U937 cells was “+ve (−ve and +ve indicate that the value is below and above respectively, the no significant effect threshold, defined as 30% inhibition at 1 μg/mL at the time point indicated.)”.
